Measured values published in patent US20030032632A1, “Pharmaceutical aerosol formulation of salmeterol and fluticasone propionate” (priority 1999, published 2003).

Tests used:
[1] = Solubility in ethanol/HFA134a and ethanol/HFA227 mixtures; format: physicochemical; settings: mixtures of ethanol/HFA134a and ethanol/HFA227
[2] = Chemical degradation on storage in ethanol/HFA134a solution; format: physicochemical

| Structure (SMILES) | solubility relative to racemic salmeterol xinafoate [1] | chemical degradation on storage [2] |
| --- | --- | --- |
| O=C(O)c1ccc2ccccc2c1O.OCc1cc(C(O)CNCCCCCCOCCCCc2ccccc2)ccc1O (stereo not shown) [R-salmeterol xinafoate] | significantly more soluble |  |
| CCC(=O)O[C@]1(C(=O)SCF)[C@H](C)C[C@H]2[C@@H]3C[C@H](F)C4=CC(=O)C=C[C@]4(C)[C@@]3(F)[C@@H](O)C[C@@]21C [fluticasone propionate, (6a, 11b, 16a, 17a)-6,9-difluoro-11-hydroxy-16-methyl-3-oxo-17-(1-oxopropoxy) androsta-1,4-diene-17-carbothioic acid, S-fluoromethyl ester] |  | quite stable to chemical degradation |
| OCc1cc(C(O)CNCCCCCCOCCCCc2ccccc2)ccc1O (stereo not drawn) [salmeterol base, 4-hydroxy-α^1-[[[6-(4-phenylbutoxy)hexyl]amino]methyl]-1,3-benzenedimethanol] | substantially more soluble |  |
| OCc1cc(C(O)CNCCCCCCOCCCCc2ccccc2)ccc1O (stereo not drawn) [salmeterol, 4-hydroxy-α^1-[[[6-(4-phenylbutoxy)hexyl]amino]methyl]-1,3-benzenedimethanol] |  | shows a tendency to exhibit chemical degradation |
